Experimental data reported in patent US5061720A, “Substituted-4-thiazolidinone derivatives” (A. H. Robins Company, Inc., priority 1989, dated 1991).

Legend:
guinea pig skin = assay: UV-Erythema in Guinea Pigs; format: in vivo; parameters: key: +: active; -: inactive; conditions: topical, 50 μL of cream with 1.0 mg test article per 1 g, immediately after UV exposure; active = composite score significantly lower than control, Dunnett's t-test p≤0.05
Procedure: I. Preparation of Formulation (cream)
All drugs tested were prepared by thoroughly incorporating 1.0 mg of the test article into 1 g of a pH 7.0 cream vehicle of the following composition.
methyl glucose sesquistearate 1.6%
methyl gluceth-20 sesquistearate 2.4%
emulsifying wax, N.F. 5.0%
mineral oil (heavy), U.S.P. 1.0%
white petrolatum, U.S.P. 5.0%
stearic acid, U.S.P. 2.5%
sodium benzoate, N.F. 0.1%
magnesium aluminum silicate 1.5%
deionized water, pH 7.0 64.8%
The preparations were packed into 1-cc plastic syringes.
II. Pharmacological Assay
The backs of female, English short hair guinea pigs (250-500 g) were shaved and depilated with Nair®. Control and treated groups each consisted of 5 animals, and selection of the animals and the control and treatment groups was achieved by random procedures. A rubber sheet with three one-half inch holes spaced one-half inch apart was draped over backs of the guinea pigs. The guinea pigs were then exposed to ultraviolet (UV) light (Hanovia Model 10, ~650-800 μW/cm^2) for 15 seconds by holding the animals against the light source. Fifty μL of the test drug or reference drug (indomethacin or bromfenac) preparation were immediately rubbed onto the skin, either on the area exposed to UV light or to an area adjacent to the UV light exposed skin. The degree of erythema for each exposed area was scored at various times following exposure according to the following scale:
1=slight redness with faint outline
2=moderate to marked redness with distinct outline
The score was totaled for each guinea pig (maximum score is 6). The Dunnett's t-test was used to determine significant (p≤0.05) differences from the control (placebo treated) group.

5-lipoxygenase = target: T1, 5-lipoxygenase (Homo sapiens, UniProt P09917); assay: 5-Lipoxygenase Assay (production of 5-HETE from arachidonic acid in polymorphonuclear leukocytes stimulated by A23187); format: cell-based; conditions: inhibition of production of 5-HETE, human PMN cells, calcium ionophore A23187, 37° C.
T1 construct: Polymorphonuclear leukocytes were obtained from whole human blood; endogenous in cells; host or cells: human polymorphonuclear leukocytes from whole blood, stimulated with A23187
T1 sequence (P09917 1-674): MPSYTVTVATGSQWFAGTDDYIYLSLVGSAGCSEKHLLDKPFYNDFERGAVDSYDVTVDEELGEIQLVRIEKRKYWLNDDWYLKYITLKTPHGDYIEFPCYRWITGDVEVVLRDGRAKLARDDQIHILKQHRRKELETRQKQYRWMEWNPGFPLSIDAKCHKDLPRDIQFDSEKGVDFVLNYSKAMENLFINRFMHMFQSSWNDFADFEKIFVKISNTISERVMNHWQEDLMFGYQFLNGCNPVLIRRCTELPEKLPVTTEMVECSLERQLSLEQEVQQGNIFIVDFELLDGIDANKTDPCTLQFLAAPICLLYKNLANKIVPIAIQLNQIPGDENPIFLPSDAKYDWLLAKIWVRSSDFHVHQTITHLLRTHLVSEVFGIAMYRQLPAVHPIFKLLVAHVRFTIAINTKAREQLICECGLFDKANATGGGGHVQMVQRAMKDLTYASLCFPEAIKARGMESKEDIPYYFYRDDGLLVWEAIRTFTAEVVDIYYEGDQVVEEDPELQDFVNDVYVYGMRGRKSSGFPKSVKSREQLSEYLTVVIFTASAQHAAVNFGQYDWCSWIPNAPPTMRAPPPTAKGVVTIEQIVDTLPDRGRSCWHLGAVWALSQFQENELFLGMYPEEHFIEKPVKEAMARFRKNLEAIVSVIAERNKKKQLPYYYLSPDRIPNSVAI
Procedure: The production of 5-HETE from arachidonic acid in human polymorphonuclear leukocytes stimulated by the calcium ionophore A23187 (Calbiochemicals) was measured by reverse phase high pressure liquid chromatography. This procedure is a modification of the procedure of Sun and McGuire, PROSTAGLANDINS, 26, 211-221 (1983). Addition of substances to the test system that inhibit 5-lipoxygenases cause a decrease in the production of 5-HETE and is thus determined in comparison to reference and control articles also added to the reaction system.
Polymorphonuclear leukocytes were obtained from whole human blood by the procedure of Skoog and Beck, BLOOD, 11, 436-454 (1956). […] The tube is incubated for an additional 10 min at 37° C. and the incubations terminated by addition of 1.5 mL of acetone and cooling to 0° C. 13-Hydroxyoctadecatrienoic acid (13-HODT) (5 μL of 0.2 mM methanolic solution) is added for an internal reference standard. The tube is stored at -20° C. under argon for 4-18 hr. Centrifugation at 1000×g for 10 min causes protein precipitate to form a pellet. The acetone layer is evaporated under a stream of nitrogen and the resultant lipid residue containing the arachidonic acid metabolites and 13-HODT is dissolved in 0.5 mL of methanol and stored at -20° C. until analyzed by high-pressure liquid chromatography (HPLC).
For analysis, a 150-μL aliquot of the methanol solution is evaporated under a stream of argon. The residue is reconstituted with 100 μL of a 1:1 methanol-water mixture and sonified for 15-20 seconds and the mixture analyzed by HPLC (C18 reversed phase Econophere column, methanol:water:acetic acid 79:25:0.2 v/v/v used for elution). Test, reference, and control articles are evaluated in duplicate. The inhibition is reported as that concentration which will inhibit by 50% the production of 5-HETE.

IC50 (5-lipoxygenase) [µM] | SMILES | U.V. erythema (+ = active, - = inactive) (guinea pig skin)
10 | CCCCC1SC(c2cccc(Oc3ccccc3)c2)N(CCc2ccccc2)C1=O (centres unmarked) [Example 17, 5-Butyl-2-(3-phenoxyphenyl)-3-(2-phenylethyl)-4-thiazolidinone] | -
< 10 | CCCC[C@@H]1S[C@@H](c2cccc(Oc3ccccc3)c2)NC1=O (relative stereo) [Example 83, 5-Butyl-2-(3-phenoxyphenyl)-4-thiazolidinone] | -
> 100 | CCCCC1SC(c2cccc(Oc3ccccc3)c2)N(CCCCc2ccccc2)C1=O (centres unmarked) [Example 1, 5-Butyl-2-(3-phenoxyphenyl)-3-(4-phenylbutyl)-4-thiazolidinone] | +
~15 | CCCCC1SC(c2cccc(Oc3ccccc3)c2)N(CCCCC(=O)O)C1=O (centres unmarked) [Example 45, 5-Butyl-4-oxo-2-(3-phenoxyphenyl)-3-thiazolidinepentanoic acid] | +
< 20 | CC1SC(c2cccc(Oc3ccccc3)c2)N(CCCCc2ccccc2)C1=O (centres unmarked) [Example 7, 5-Methyl-2-(3-phenoxyphenyl)-3-(4-phenylbutyl)-4-thiazolidinone] | +
~100 | CCCCC1SC(c2cccc(C(=O)c3ccccc3)c2)N(CCCCc2ccccc2)C1=O (centres unmarked) [Example 8, 2-(3-Benzoylphenyl)-5-butyl-3-(4-phenylbutyl)-4-thiazolidinone] | +
~15 | CCCC[C@@H]1S[C@H](c2cccc(Oc3ccccc3)c2)N(CCCCCC(=O)OCC)C1=O (relative stereo) [Example 51] | -
